Results reported in patent publication US9249112B2, “Solid forms of a transthyretin dissociation inhibitor” (PFIZER INC., priority 2011, dated 2016).

What was measured:
Format in all cases: physicochemical
[1] = hygroscopicity of the solid form; conditions: crystalline form, anhydrous mono-meglumine salt
[2] = solubility in unbuffered water; conditions: free acid
[3] = gel formation on contact with aqueous vehicles; conditions: compound alone, on contact with aqueous vehicles such as water, phosphate buffer and hydrochloric acid
Source text: Without wishing to be bound by theory, it appears that such gel formation, upon oral administration, can hinder dissolution and/or bioavailability of such compounds, leading to, for example, stomach compaction and non-proportional plasma levels of drug in the subject as compared to the dose administered. […] Consequently, the pharmaceutical compositions herein are also contemplated for use in or further combination with any conventional formulation or route or method of administration where contact with water or other aqueous vehicles may occur, e.g., contact with blood or other body fluids as in various forms of parenteral administration (e.g., contact with blood in intravenous administration, implants, and the like), contact with mucous membranes (e.g., suppositories via vaginal or rectal administration, dry powder aerosols for pulmonary administration, transdermal patches or lozenges applied to mucous membranes, and the like). In such routes of administration, the benefits of the certain pharmaceutical compositions, such as resistance to gel formation, greater dissolution and bioavailability, dose proportionality, stability to storage, or the like may be beneficial.

6-carboxy-2-(3,5-dichlorophenyl)-benzoxazole meglumine [Compound 1]
hygroscopicity [1]: non-hygroscopic

O=C(O)c1ccc2nc(-c3cc(Cl)cc(Cl)c3)oc2c1 [free acid, 6-carboxy-2-(3,5-dichlorophenyl)-benzoxazole]
solubility [2]: < 11 µg/mL | gel formation [3]: can form a gel
